From patent US20190133128A1, “Fungicidal pyridazinones” (FMC Corporation, priority 2017, published 2019)

Tests used:
Assay type in all cases: in vivo
Phytophthora infestans = test: whole plant or invertebrate; settings: tomato seedlings
[1] = system: Puccinia recondita f. sp. tritici; test: Test F: preventive spray on wheat seedlings, wheat leaf rust, visual disease rating
Outline: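 Compounds were dissolved in acetone/water (50/50) with PEG400 surfactant and sprayed to run-off on wheat seedlings, at 250 ppm unless another rate is indicated. The next day, seedlings were inoculated with a Puccinia recondita f. sp. tritici spore suspension; disease was rated visually.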

Botrytis cinerea = test: Test C: preventive spray on tomato seedlings, gray mold, visual disease rating
Outline: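 Compounds predissolved in acetone (3% of final volume), then suspended in 50/50 acetone/water with PEG400 surfactant. Sprayed preventively at 250 ppm or other indicated rate to run-off on tomato seedlings before Botrytis challenge; disease rated visually.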

Zymoseptoria tritici = test: Test E: preventive spray on wheat seedlings, wheat leaf blotch, visual disease rating
Outline: (§1)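 Preventive foliar spray of wheat seedlings to run-off, at 250 ppm or other indicated rate. Compounds dissolved in acetone (3% of final volume), suspended in 50/50 acetone–water with PEG400 surfactant. Disease rated visually.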

[2] = system: Erysiphe graminis f. sp. tritici; test: Test G: preventive spray on wheat seedlings, wheat powdery mildew, visual disease rating
Outline: as §1

Phakopsora pachyrhizi = test: Test A: preventive spray on soybean seedlings, Asian soybean rust, visual disease rating
Plasmopara viticola = test: Test B: preventive spray on grape seedlings, grape downy mildew, disease rating
Source text: General protocol for preparing test solutions for Tests AG: the test compounds were first dissolved in acetone in an amount equal to 3% of the final volume and then suspended at the desired concentration (in ppm) in acetone and purified water (50/50 mix by volume) containing the surfactant PEG400 (polyhydric alcohol esters). The resulting test suspensions were then used in Tests AG. Compounds were sprayed at a concentration of 250 ppm or other indicated rate to the point of run-off on the test plants. The test solution was sprayed to the point of run-off on grape seedlings. […] A dash (-) indicates no test results.

[3] = 250 ppm, 100 = 100% disease control, 0 = no control

| Compound | Test D disease control rating (Phytophthora infestans; [3]) [%] | Test F disease control rating [1, 3] [%] | Test C disease control rating (Botrytis cinerea; [3]) [%] | Test E disease control rating (Zymoseptoria tritici; [3]) [%] | Test G disease control rating [2, 3] [%] | Test A disease control rating (Phakopsora pachyrhizi; [3]) [%] | Test B disease control rating (Plasmopara viticola; [3]) [%] | Test D disease control rating (Phytophthora infestans; 50 ppm) [%] | Test F disease control rating ([1]; 50 ppm) [%] | Test C disease control rating (Botrytis cinerea; 50 ppm) [%] | Test E disease control rating (Zymoseptoria tritici; 50 ppm) [%] | Test G disease control rating ([2]; 50 ppm) [%] | Test A disease control rating (Phakopsora pachyrhizi; 50 ppm) [%] | Test B disease control rating (Plasmopara viticola; 50 ppm) [%] |
| --- | --- | --- | --- | --- | --- | --- | --- | --- | --- | --- | --- | --- | --- | --- |
| CSc1cnn(C)c(=O)c1C(=O)Nc1ccc(OC(F)(F)F)cc1 [Compound 109] | 0 | 0 | 0 | 0 | 55 | 0 | 0 |  |  |  |  |  |  |  |
| Cn1ncc([S+](C)[O-])c(C(=O)Nc2ccc(OC(F)(F)F)cc2)c1=O (centres unmarked) [Compound 110] |  |  |  |  |  |  |  | 0 | 74 | 0 | 88 | 0 | 92 | 0 |
| Cn1ncc(S(C)(=O)=O)c(C(=O)Nc2ccc(OC(F)(F)F)cc2)c1=O [Compound 111] | 9 | 96 | 0 | 93 | 0 | 98 | 0 |  |  |  |  |  |  |  |
| Cn1ncc([O-])c(C(=O)Nc2ccc(S(F)(F)(F)(F)F)cc2)c1=O.[Na+] [Compound 113] | 81 | 94 | 0 | 79 | 90 | 73 | 96 |  |  |  |  |  |  |  |
| Cn1ncc(O)c(C(=O)Nc2cnc(Cl)cn2)c1=O [Compound 114] | 80 | 95 | 0 | 55 | 0 | 39 | 90 |  |  |  |  |  |  |  |
| COc1ccc(Cn2ncc(O)c(C(=O)Nc3ccc(OC(F)(F)F)cc3)c2=O)cc1 [Compound 115] | 0 | 68 | 0 | 26 | 0 | 0 | 0 |  |  |  |  |  |  |  |
| Cn1ncc(OS(=O)(=O)Cc2ccccc2)c(C(=O)Nc2ccc(OC(F)(F)F)cc2)c1=O [Compound 116] | 0 | 97 | 0 | 60 | 0 | 25 | 99 |  |  |  |  |  |  |  |
| Cc1cc(C(F)(F)F)ccc1NC(=O)c1c(O)cnn(C)c1=O [Compound 117] | 97 | 99 | 0 |  | 90 | 0 | 100 |  |  |  |  |  |  |  |
| O=C(Nc1ccc(OC(F)(F)F)cc1)c1c(O)cnn(CC(F)(F)F)c1=O [Compound 119] | 87 | 97 | 0 | 73 | 99 |  | 100 |  |  |  |  |  |  |  |
| O=C(Nc1ccc(OC(F)(F)F)cc1)c1c(O)cnn(C2CC2)c1=O [Compound 120] | 97 | 96 | 0 |  | 89 | 13 | 98 |  |  |  |  |  |  |  |
| COC(=O)c1ccc(NC(=O)c2c(O)cnn(C)c2=O)cc1 [Compound 121] | 99 | 80 | 0 | 14 | 0 | 0 | 86 |  |  |  |  |  |  |  |
| Cn1ncc(O)c(C(=O)Nc2ccccc2C(F)(F)F)c1=O [Compound 122] | 95 | 86 | 0 | 96 | 96 | 0 | 98 |  |  |  |  |  |  |  |
| CN(C)c1cnn(C)c(=O)c1C(=O)Nc1ccc(C(F)(F)F)cc1F [Compound 128] | 67 | 68 | 0 |  | 0 | 79 | 100 |  |  |  |  |  |  |  |
| Cn1ncc(O)c(C(=O)Nc2ccc(S(=O)(=O)C(F)(F)F)cc2)c1=O [Compound 129] | 82 | 89 | 0 |  | 81 | 0 | 98 |  |  |  |  |  |  |  |
| CC(C)n1ncc(O)c(C(=O)Nc2ccc(OC(F)(F)F)cc2)c1=O [Compound 131] | 99 | 91 | 0 | 51 | 100 |  | 98 |  |  |  |  |  |  |  |
| Cn1ncc(O)c(C(=O)Nc2c(Cl)cc(OC(F)(F)F)cc2Cl)c1=O [Compound 133] | 89 | 86 | 0 | 100 | 100 |  | 100 |  |  |  |  |  |  |  |
| O=C(Nc1ccc(OC(F)(F)F)cc1)c1c(O)cn[nH]c1=O [Compound 136] | 91 | 93 | 0 |  | 0 | 0 | 100 |  |  |  |  |  |  |  |
| Cn1ncc(O)c(C(=O)Nc2ccc(C(F)(F)C(F)(F)F)cc2)c1=O [Compound 138] | 99 | 100 | 0 | 99 | 99 |  | 100 |  |  |  |  |  |  |  |
| Cn1ncc(O)c(C(=O)Nc2c(Cl)cccc2Cl)c1=O [Compound 141] |  | 68 | 0 |  | 64 | 50 | 96 |  |  |  |  |  |  |  |
| Cn1ncc(O)c(C(=O)Nc2ccc(F)cc2F)c1=O [Compound 144] | 99 | 99 | 0 |  | 87 | 0 | 100 |  |  |  |  |  |  |  |
| Cn1ncc(O)c(C(=O)Nc2cccc(Oc3ccccc3)c2)c1=O [Compound 151] | 0 | 85 | 0 |  | 13 | 0 | 83 |  |  |  |  |  |  |  |
| N-(4-Bromophenyl)-2,3-dihydro-5-hydroxy-2-methyl-3-oxo-4-pyridazinecarboxamide [Compound 75] | 93 | 98 | 0 | 83 | 13 |  | 86 |  |  |  |  |  |  |  |
